The source of these data is ChEMBL document CHEMBL1201862, “PubChem BioAssay data set” (2004).

What all share (assay): NCI-60 cell line screen, 48 h
The test system of experiment [1] is SF-295.
In experiment [2] the test system is SNB-19.
Experiment [3] has as its system K562.
For experiment [4], the system named is CAKI-1.
Experiment [5] concerns DU-145.
Experiment [6] has as its system KM12.
Experiment [7] deals with ACHN.
Experiment [8] concerns NCI-H460.
The subject of experiment [9] is MDA-MB-435.
Experiment [10] concerns SK-MEL-2.
Experiment [11] concerns OVCAR-3.
Experiment [12] deals with Hs-578T.
Experiment [13] concerns MDA-N.
The test system of experiment [14] is BT-549.
The test system of experiment [15] is NCI-H226.
The test system of experiment [16] is UACC-62.
Experiment [17] relates to Malme-3M.
The test system of experiment [18] is SN12C.
For experiment [19], the system named is LOX IMVI.

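These data come from cells grown in 96-well plates and exposed to compound for 48 hours at five concentrations. The concentration for 50% growth inhibition is given as GI50.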 Active and inactive are the calls of the source. Cut-off read from the data, not from the text of the source: active = GI50 up to about 1.1 µM and inactive = higher.

In the case of `O=C(O)CC(NC(=O)C(F)(F)F)C(=O)NC1Cc2ccccc2OC1=O` (configuration not stated), the GI50 in experiment [1], in experiment [2], in experiment [3], in experiment [4], in experiment [5] and in experiment [6] was > 100 µM (inactive) throughout. The GI50 in experiment [7], in experiment [8], in experiment [9], in [10], in experiment [11] and in [12] was > 100 µM (inactive) in each case. In addition, the GI50 in experiment [13], in experiment [14], in [15], in experiment [16], in experiment [17] and in [18] was > 100 µM (inactive) throughout.

For the compound `CCN(CC)Cc1ccc(Nc2c3ccccc3nc3ccccc23)cc1`, the GI50 is 2.62 µM (inactive) in experiment [1]; 1.35 µM (inactive) in [2]; 1.6 µM (inactive) in experiment [3]; 1.41 µM (inactive) in experiment [4]; 2.37 µM (inactive) in experiment [5]; 3.17 µM (inactive) in experiment [6]. The GI50 in experiment [7] was 0.364 µM (active); in experiment [8] it was 1.19 µM (inactive); in [9], 2.04 µM (inactive); in experiment [10] it was 2.99 µM (inactive); in experiment [11], 3.03 µM (inactive); in experiment [12], 4.86 µM (inactive). The GI50 is 1.53 µM (inactive) in experiment [13]; 10.1 µM (inactive) in experiment [14]; 1.56 µM (inactive) in experiment [19]; 1.81 µM (inactive) in [16]; 1.36 µM (inactive) in experiment [17]; 2.31 µM (inactive) in [18].

In the case of `C[C@]12C[C@H](c3ccccc3)Nc3ccccc3N1C(c1ccccc1)=NO2`, the GI50 was 22.5 µM (inactive) in experiment [1]; > 100 µM (inactive) in experiment [2]; 33.8 µM (inactive) in [3]; 64.3 µM (inactive) in [4]; > 100 µM (inactive) in experiment [5]; 61 µM (inactive) in experiment [6]. Besides, the GI50 was 64.1 µM (inactive) in [7]; 49.7 µM (inactive) in experiment [8]; 35.5 µM (inactive) in experiment [9]; > 100 µM (inactive) in [10]; 28.5 µM (inactive) in [11]; > 100 µM (inactive) in experiment [12]. Besides, the GI50 in [13] was 74.1 µM (inactive); in [14], 30.5 µM (inactive); in experiment [15], > 100 µM (inactive); in experiment [16] it was 85.1 µM (inactive); in [17], 44.3 µM (inactive); in [18], > 100 µM (inactive).

Regarding `CC(=O)Nc1sc(Br)cc1S(=O)(=O)c1ccc(Cl)cc1`, the GI50 is 31.2 µM (inactive) in experiment [1]; 46.6 µM (inactive) in experiment [2]; 21.1 µM (inactive) in experiment [3]; > 100 µM (inactive) in experiment [4]; 46.6 µM (inactive) in experiment [5]; 20.3 µM (inactive) in experiment [6]. Moreover, the GI50 in experiment [7] was 34 µM (inactive); in experiment [8], 33.7 µM (inactive); in experiment [9], 28.1 µM (inactive); in experiment [10], 30.1 µM (inactive); in [11], 20.5 µM (inactive); in [12], 20 µM (inactive). Also, the GI50 in experiment [13] was 43.5 µM (inactive); in [14] it was 35.6 µM (inactive); in [15], 19.1 µM (inactive); in experiment [16] it was 38.1 µM (inactive); in experiment [17] it was 32.1 µM (inactive); in [18] it was 71.9 µM (inactive).
